| melting point | SMILES |
| --- | --- |
| 140 to 143 °C | CN(C)CCn1ccc2ccc(NS(=O)(=O)c3ccc4ccccc4c3)cc21 [Example 2, N-[1-(2-Dimethylaminoethyl)-1H-indole-6-yl]-naphthalene-2-sulfonamide] |
| 139 to 142 °C | CN(C)CCn1ccc2ccc(NS(=O)(=O)c3cccc4ccccc34)cc21 [Example 3, N-[1-(2-Dimethylaminoethyl)-1H-indole-6-yl]-naphthalene-1-sulfonamide] |
| 150 to 159 °C | CN(C)CCn1ccc2ccc(NS(=O)(=O)c3cc(Cl)cc(Cl)c3)cc21 [Example 8, N-[1-(2-dimethylaminoethyl)-1H-indole-6-yl]-3,5-dichlorobenzenesulfonamide] |
